According to US5306808A, “Peptide derivatives having vasodilating activity” (Takeda Chemical Industries, Ltd., priority 1991, dated 1994):
Where a SMILES comes first, the peptide text is derived from it. Bridges are numbered along the chain shown (N, C = ends). Where no end group is shown, it is not given here. [ ]: non-standard residue; d: D form. tBuAla = CC(C)(C)C[C@H](N)C(=O)O

What was measured:
endothelin receptor = assay: Assay of affinity for receptor (I125-ET-1 binding to porcine myocardial membrane fraction); details: ET-1 = 100
Protocol: A membrane fraction prepared from the porcine heart was diluted to 0.15 mg/ml by using a buffer solution [PBS (pH 7.4) containing 0.5 mM CaCl2, 1.0 mM MgCl2, 0.02% NaN3, 0.1% BSA (fraction V, Sigma), 0.1 mM PMSF and 0.1 μg/ml pepstatin (binding buffer)] for assay, and 100 μl of the resulting suspension of the membrane fraction was poured into each assay tube to use for assay. To this suspension of the membrane fraction were added 2 μl of an endothelin-1 solution labeled with 5 μM radioactive iodine. Further, 3 μl of a test peptide solution was added thereto, followed by maintenance at a temperature of 25° C. for 1 hour. Then, the resulting suspension was diluted with 900 μl of the buffer solution for assay cooled with ice, and thereafter separated into a supernatant and a precipitate by centrifugation at 12,000×g for 10 minutes. Cell membranes and an endothelin receptor embedded therein were contained in the precipitate, and radioactive iodine-labeled endothelin combined with the receptor was also recovered in the precipitate. Accordingly, the amount of radioactive iodine-labeled endothelin combined with the endothelin receptor was determined by measuring the amount of radioactive iodine contained in the precipitate with a gamma-ray counter. Compounds in which the affinity for the endothelin receptor is high and the maximum constriction is not high are antagonists. Contrary to this, compounds in which the affinity for the endothelin receptor is high and the maximum constriction is high are agonists.

porcine coronary artery = format: cell-based; details: for Constrictor activity (Relative potency): ET-1 = 100; for Maximum Constriction (% 60 mM KCl): normalized to constriction response to 60 mM KCl
Protocol: Each of helical strips 2 mm×15 mm prepared from the coronary right ramus circumflexus from which the adventitial connective tissues and the endothelial cells were removed was set to each of 4 ml organ baths. Its tension was detected by a force displacement transducer UL-10GR (Minebea), and recorded by a polygraph (NEC Sanei). The organ baths were maintained at 37° C., and filled with a Krebs-Henseleit solution (composition:118 mM NaCl, 4.7 mM KCl, 2.5 mM CaCl2, 1.2 mM KH2 PO4, 25.0 mM NaHCO3, 1.2 mM MgSO4, 10.0 mM glucose) gassed with 95% O2 and 5% CO2.
A tension of 1.25 to 1.5 g was applied to each of the strips, followed by equilibration for 1.5 hours. 60 mM KCl was repeatedly applied thereto at intervals of 30 minutes until the constriction response became constant. After additional equilibration for 1.5 hours, a sample for assay was given. The constriction of the strips was normalized by the constriction response of the individual strips to 60 mM KCl and statistically processed.
(2) As to the antagonist property or the agonist property of the peptide derivatives of present invention to endothelin, the affinity for an endothelin receptor and the constrictor activity to porcine coronary smooth muscles (according to the method described in (1) described above) were assayed. The affinity for the receptor was assayed by the following method.

Row | Compound | Receptor binding activity (Relative potency) (endothelin receptor) | Constrictor activity (Relative potency) (porcine coronary artery) | Maximum Constriction (% 60 mM KCl) (porcine coronary artery)
1 | CC[C@H](C)[C@H](NC(=O)[C@H](CO)NC(=O)[C@H](CC(C)C)NC(=O)[C@H](Cc1c[nH]cn1)NC(=O)[C@@H]1CSSC[C@H](N)C(=O)N[C@@H](CO)C(=O)N[C@H]2CSSC[C@H](NC(=O)[C@H](CCC(=O)O)NC(=O)[C@H](CCCCN)NC(=O)[C@H](CC(=O)O)NC(=O)[C@H](CCSC)NC(=O)[C@H](CC(C)C)NC(=O)[C@H](CO)NC(=O)[C@H](CO)NC2=O)C(=O)N[C@@H](C(C)C)C(=O)N[C@@H](Cc2ccc(O)cc2)C(=O)N[C@@H](Cc2ccccc2)C(=O)N1)C(=O)N[C@H](C(=O)N[C@@H](Cc1c[nH]c2ccccc12)C(=O)O)[C@@H](C)CC [Example 34, [Ser^18]-ET-1] (H-CSCSSLMDKECVYFCHLSIIW-OH; disulfide 1-15, 3-11) | 20.9 | 18 | 79 % 60 mM KCl
2 | CC[C@H](C)[C@H](NC(=O)[C@H](CC(=O)O)NC(=O)[C@H](CC(C)C)NC(=O)[C@H](Cc1c[nH]cn1)NC(=O)[C@@H]1CSSC[C@H](N)C(=O)N[C@@H](CO)C(=O)N[C@@H](CC(C)C)C(=O)N[C@@H](CO)C(=O)N[C@@H](CO)C(=O)N[C@@H](CC(C)C)C(=O)N[C@@H](CCSC)C(=O)N[C@@H](CC(=O)O)C(=O)N[C@@H](CCCCN)C(=O)N[C@@H](CCC(=O)O)C(=O)N[C@@H](CC(C)C)C(=O)N[C@@H](C(C)C)C(=O)N[C@@H](Cc2ccc(O)cc2)C(=O)N[C@@H](Cc2ccccc2)C(=O)N1)C(=O)N[C@H](C(=O)N[C@@H](Cc1c[nH]c2ccccc12)C(=O)O)[C@@H](C)CC [Example 38, [Leu^3,11]-ET-1] (H-CSLSSLMDKELVYFCHLDIIW-OH; disulfide 1-15) | 0.1 | < 0.1 | 10 % 60 mM KCl
3 | CC[C@H](C)[C@H](NC(=O)[C@H](CC(=O)O)NC(=O)[C@H](CC(C)C)NC(=O)[C@H](Cc1c[nH]cn1)NC(=O)[C@@H]1CSSC[C@H](N)C(=O)N[C@@H](CO)C(=O)N[C@@H](C(C)C)C(=O)N[C@@H](CO)C(=O)N[C@@H](CO)C(=O)N[C@@H](CC(C)C)C(=O)N[C@@H](CCSC)C(=O)N[C@@H](CC(=O)O)C(=O)N[C@@H](CCCCN)C(=O)N[C@@H](CCC(=O)O)C(=O)N[C@@H](C(C)C)C(=O)N[C@@H](C(C)C)C(=O)N[C@@H](Cc2ccc(O)cc2)C(=O)N[C@@H](Cc2ccccc2)C(=O)N1)C(=O)N[C@H](C(=O)N[C@@H](Cc1c[nH]c2ccccc12)C(=O)O)[C@@H](C)CC [Example 39, [Val^3,11]-ET-1] (H-CSVSSLMDKEVVYFCHLDIIW-OH; disulfide 1-15) | 0.59 | < 0.1 | 34 % 60 mM KCl
4 | CC[C@H](C)[C@H](NC(=O)[C@H](CC(C)C)NC(=O)[C@H](Cc1c[nH]cn1)NC(=O)[C@@H]1CSSC[C@H](N)C(=O)N[C@@H](CO)C(=O)N[C@H]2CSSC[C@H](NC(=O)[C@H](CCC(=O)O)NC(=O)[C@H](CCCCN)NC(=O)[C@H](CC(=O)O)NC(=O)[C@H](CCSC)NC(=O)[C@H](CC(C)C)NC(=O)[C@H](CO)NC(=O)[C@H](CO)NC2=O)C(=O)N[C@@H](C(C)C)C(=O)N[C@@H](Cc2ccc(O)cc2)C(=O)N[C@@H](Cc2ccccc2)C(=O)N1)C(=O)N[C@H](C(=O)N[C@H](C(=O)N[C@@H](Cc1c[nH]c2ccccc12)C(=O)O)[C@@H](C)CC)[C@@H](C)CC [Example 43, [Ile^18]-ET-1] (H-CSCSSLMDKECVYFCHLIIIW-OH; disulfide 1-15, 3-11) | 3.2 | < 0.1 | 0 % 60 mM KCl
5 | CC[C@H](C)[C@H](NC(=O)[C@H](CC(C)(C)C)NC(=O)[C@H](CC(C)C)NC(=O)[C@H](Cc1c[nH]cn1)NC(=O)[C@@H]1CSSC[C@H](N)C(=O)N[C@@H](CO)C(=O)N[C@H]2CSSC[C@H](NC(=O)[C@H](CCC(=O)O)NC(=O)[C@H](CCCCN)NC(=O)[C@H](CC(=O)O)NC(=O)[C@H](CCSC)NC(=O)[C@H](CC(C)C)NC(=O)[C@H](CO)NC(=O)[C@H](CO)NC2=O)C(=O)N[C@@H](C(C)C)C(=O)N[C@@H](Cc2ccc(O)cc2)C(=O)N[C@@H](Cc2ccccc2)C(=O)N1)C(=O)N[C@H](C(=O)N[C@@H](Cc1c[nH]c2ccccc12)C(=O)O)[C@@H](C)CC [Example 45, [γ-Leu^18]-ET-1] (H-CSCSSLMDKECVYFCHL[tBuAla]IIW-OH; disulfide 1-15, 3-11) | 1.0 | < 0.1 | 3 % 60 mM KCl
6 | CC[C@H](C)[C@H](NC(=O)[C@H](CCC(=O)O)NC(=O)[C@H](CC(C)C)NC(=O)[C@H](Cc1c[nH]cn1)NC(=O)[C@@H]1CSSC[C@H](N)C(=O)N[C@@H](CO)C(=O)N[C@H]2CSSC[C@H](NC(=O)[C@H](CCC(=O)O)NC(=O)[C@H](CCCCN)NC(=O)[C@H](CC(=O)O)NC(=O)[C@H](CCSC)NC(=O)[C@H](CC(C)C)NC(=O)[C@H](CO)NC(=O)[C@H](CO)NC2=O)C(=O)N[C@@H](C(C)C)C(=O)N[C@@H](Cc2ccc(O)cc2)C(=O)N[C@@H](Cc2ccccc2)C(=O)N1)C(=O)N[C@H](C(=O)N[C@@H](Cc1c[nH]c2ccccc12)C(=O)O)[C@@H](C)CC [Example 46, [Glu^18]-ET-1] (H-CSCSSLMDKECVYFCHLEIIW-OH; disulfide 1-15, 3-11) | 3.2 | < 0.1 | 6 % 60 mM KCl
7 | CC[C@H](C)[C@H](NC(=O)[C@@H](NC(=O)[C@H](CC(C)C)NC(=O)[C@H](Cc1c[nH]cn1)NC(=O)[C@@H]1CSSC[C@H](N)C(=O)N[C@@H](CO)C(=O)N[C@H]2CSSC[C@H](NC(=O)[C@H](CCC(=O)O)NC(=O)[C@H](CCCCN)NC(=O)[C@H](CC(=O)O)NC(=O)[C@H](CCSC)NC(=O)[C@H](CC(C)C)NC(=O)[C@H](CO)NC(=O)[C@H](CO)NC2=O)C(=O)N[C@@H](C(C)C)C(=O)N[C@@H](Cc2ccc(O)cc2)C(=O)N[C@@H](Cc2ccccc2)C(=O)N1)[C@@H](C)O)C(=O)N[C@H](C(=O)N[C@@H](Cc1c[nH]c2ccccc12)C(=O)O)[C@@H](C)CC [Example 51, [Thr^18]-ET-1] (H-CSCSSLMDKECVYFCHLTIIW-OH; disulfide 1-15, 3-11) | 100 | 26 | 76 % 60 mM KCl
8 | CC[C@H](C)[C@H](NC(=O)[C@H](CC(=O)O)NC(=O)[C@H](CC(C)C)NC(=O)[C@H](Cc1c[nH]cn1)NC(=O)[C@@H]1CSSC[C@H](N)C(=O)N[C@@H](CO)C(=O)N[C@@H](CC(C)C)C(=O)N[C@@H](CO)C(=O)N[C@@H](CO)C(=O)N[C@@H](CC(C)C)C(=O)N[C@@H](CCSC)C(=O)N[C@@H](CC(=O)O)C(=O)N[C@@H](CCCCN)C(=O)N[C@@H](CCC(=O)O)C(=O)N[C@@H](C)C(=O)N[C@@H](C(C)C)C(=O)N[C@@H](Cc2ccc(O)cc2)C(=O)N[C@@H](Cc2ccccc2)C(=O)N1)C(=O)N[C@H](C(=O)N[C@@H](Cc1c[nH]c2ccccc12)C(=O)O)[C@@H](C)CC [Example 52, [Leu^3, Ala^11]-ET-1] (H-CSLSSLMDKEAVYFCHLDIIW-OH; disulfide 1-15) | 0.35 | < 0.1 | 6 % 60 mM KCl
9 | [Asn^18 ]-ET-1 (CSCSSLMDKECVYFCHLNIIW; ends and bridges not checked; cysteine pairing not given here; UniProt P05305 53-73, looked up, variant D18N) [Example 35] | 9.1 | < 0.1 | 43 % 60 mM KCl
10 | [Trp^3,11 ]-ET-1 (CSWSSLMDKEWVYFCHLDIIW; ends and bridges not checked; cysteine pairing not given here; UniProt P05305 53-73, looked up, variant C3W C11W) [Example 4] | 0.27 | < 0.1 | 10 % 60 mM KCl
11 | [Val^3,Ala^11 ]-ET-1 (CSVSSLMDKEAVYFCHLDIIW; ends and bridges not checked; cysteine pairing not given here; UniProt P05305 53-73, looked up, variant C3V C11A) [Example 41] | 4.5 | 73 | 130 % 60 mM KCl
